Measurements published in ChEMBL document CHEMBL3259742, “Design and synthesis of triazolopyrimidine acylsulfonamides as novel anti-mycobacterial leads acting through inhibition of acetohydroxyacid synthase” (Bioorg Med Chem Lett, 2014).
≈ marks a conversion by molar mass, not a printed value.

Legend:
[1] = test system: Mycobacterium tuberculosis; experiment: Antimycobacterial activity against Mycobacterium tuberculosis H37Rv ATCC 27294 after 7 days by resazurin assay in presence of Isoleucine, Leucine and Valine; format: functional; settings: H37Rv ATCC 27294, 168 h
[2] = test system: Mycobacterium tuberculosis; experiment: Antimycobacterial activity against Mycobacterium tuberculosis H37Rv ATCC 27294 after 7 days by resazurin assay; format: functional; settings: H37Rv ATCC 27294, 168 h
[3] = Inhibition of Mycobacterium tuberculosis acetohydroxy acid synthase after 60 mins by acetoin formation-based colorimetry

Compound	MIC [1] [µg/mL]	MIC [2] [µg/mL]	pIC50 [3]
COC(=O)c1ccccc1S(=O)(=O)NC(=O)Nc1nc(C)cc(C)n1 [SULFOMETURON METHYL]	> 32	16 (≈ 43.9 µM)	6.12
COc1ccccc1S(=O)(=O)NC(=O)c1nc2nc(C)cc(C)n2n1	> 32	0.5 (≈ 1.38 µM)	5.81
Cc1cc(C)n2nc(C(=O)NS(=O)(=O)c3c(C)cccc3C)nc2n1	> 32	0.5 (≈ 1.39 µM)	6.54
Cc1cc(C)n2nc(C(=O)NS(=O)(=O)c3ccccc3OC(F)F)nc2n1	> 32	< 0.25	> 7.2
COC(=O)c1ccccc1S(=O)(=O)NC(=O)c1nc2nc(C)cc(C)n2n1	> 32	0.25 (≈ 0.642 µM)	7.15
Cc1cc(C)n2nc(C(=O)NS(=O)(=O)c3ccccc3C)nc2n1	> 32	1 (≈ 2.9 µM)	6.29
Cc1cc(C)n2nc(C(=O)NS(=O)(=O)c3ccccc3OC(F)(F)F)nc2n1	> 32	0.03 (≈ 0.0722 µM)	7.6
Cc1cc(C)n2nc(C(=O)NS(=O)(=O)c3cccc(Br)c3)nc2n1	–	32 (≈ 78 µM)	5.31
Cc1cc(C)n2nc(C(=O)NS(=O)(=O)c3c(C)cccc3Cl)nc2n1	> 32	0.25 (≈ 0.658 µM)	6.7
Cc1cc(C)n2nc(C(=O)NS(=O)(=O)c3ccccc3F)nc2n1	> 32	> 32	5.24
Cc1cc(C)n2nc(C(=O)NS(=O)(=O)c3c(C)cccc3OC(F)(F)F)nc2n1	> 32	≤ 0.03	7.75
Cc1cc(C)n2nc(C(=O)NS(=O)(=O)c3cccc(OC(F)(F)F)c3)nc2n1	–	16 (≈ 38.5 µM)	5.6
Cc1cc(C)n2nc(C(=O)NS(=O)(=O)c3ccccc3Br)nc2n1	> 32	0.25 (≈ 0.609 µM)	7.04
Cc1cc(C)n2nc(C(=O)NS(=O)(=O)c3ccccc3C(F)(F)F)nc2n1	> 32	≤ 0.13	6.98
Cc1cc(C)n2nc(C(=O)NS(=O)(=O)c3ccc(OC(F)(F)F)cc3)nc2n1	–	> 32	< 4.52
Cc1cc(C)n2nc(C(=O)NS(=O)(=O)c3ccccc3CC#N)nc2n1	–	32 (≈ 86.4 µM)	6.59
Cc1cc(C)n2nc(C(=O)NS(=O)(=O)c3ccc(C(F)(F)F)cc3)nc2n1	–	> 32	< 4.52
Cc1cc(C)n2nc(C(=O)NS(=O)(=O)c3ccccc3Cl)nc2n1	> 32	2 (≈ 5.47 µM)	6.82
Cc1cc(C)n2nc(C(=O)NS(=O)(=O)c3cccc(C(F)(F)F)c3)nc2n1	–	16 (≈ 40.1 µM)	5.36
